Source: US8129417B2, “Substituted octahydrocyclopenta[C]pyrrol-4-amines as calcium channel blockers” (Abbott Laboratories, priority 2008, dated 2012)

Each molecule was assayed against human Cav2.2 (Homo sapiens, UniProt Q00975) (assay: Assessment of calcium channel activity using FLIPR (Ca2+ influx in IMR32 cells)). Conditions: 60 minute pre-incubation with compound, 2 μM nifedipine, depolarized with 80 mM KCl.
Format: cell-based
Method in brief: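 IC50 came from sigmoidal non-linear regression of percent inhibition, relative to uninhibited activity, across compound concentrations. Calcium influx was measured by FLIPR in IMR32 cells plated at 1-1.2×10^5 cells/well and cultured 48 h at 37 °C.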

Sequence of human Cav2.2 (Q00975 whole entry): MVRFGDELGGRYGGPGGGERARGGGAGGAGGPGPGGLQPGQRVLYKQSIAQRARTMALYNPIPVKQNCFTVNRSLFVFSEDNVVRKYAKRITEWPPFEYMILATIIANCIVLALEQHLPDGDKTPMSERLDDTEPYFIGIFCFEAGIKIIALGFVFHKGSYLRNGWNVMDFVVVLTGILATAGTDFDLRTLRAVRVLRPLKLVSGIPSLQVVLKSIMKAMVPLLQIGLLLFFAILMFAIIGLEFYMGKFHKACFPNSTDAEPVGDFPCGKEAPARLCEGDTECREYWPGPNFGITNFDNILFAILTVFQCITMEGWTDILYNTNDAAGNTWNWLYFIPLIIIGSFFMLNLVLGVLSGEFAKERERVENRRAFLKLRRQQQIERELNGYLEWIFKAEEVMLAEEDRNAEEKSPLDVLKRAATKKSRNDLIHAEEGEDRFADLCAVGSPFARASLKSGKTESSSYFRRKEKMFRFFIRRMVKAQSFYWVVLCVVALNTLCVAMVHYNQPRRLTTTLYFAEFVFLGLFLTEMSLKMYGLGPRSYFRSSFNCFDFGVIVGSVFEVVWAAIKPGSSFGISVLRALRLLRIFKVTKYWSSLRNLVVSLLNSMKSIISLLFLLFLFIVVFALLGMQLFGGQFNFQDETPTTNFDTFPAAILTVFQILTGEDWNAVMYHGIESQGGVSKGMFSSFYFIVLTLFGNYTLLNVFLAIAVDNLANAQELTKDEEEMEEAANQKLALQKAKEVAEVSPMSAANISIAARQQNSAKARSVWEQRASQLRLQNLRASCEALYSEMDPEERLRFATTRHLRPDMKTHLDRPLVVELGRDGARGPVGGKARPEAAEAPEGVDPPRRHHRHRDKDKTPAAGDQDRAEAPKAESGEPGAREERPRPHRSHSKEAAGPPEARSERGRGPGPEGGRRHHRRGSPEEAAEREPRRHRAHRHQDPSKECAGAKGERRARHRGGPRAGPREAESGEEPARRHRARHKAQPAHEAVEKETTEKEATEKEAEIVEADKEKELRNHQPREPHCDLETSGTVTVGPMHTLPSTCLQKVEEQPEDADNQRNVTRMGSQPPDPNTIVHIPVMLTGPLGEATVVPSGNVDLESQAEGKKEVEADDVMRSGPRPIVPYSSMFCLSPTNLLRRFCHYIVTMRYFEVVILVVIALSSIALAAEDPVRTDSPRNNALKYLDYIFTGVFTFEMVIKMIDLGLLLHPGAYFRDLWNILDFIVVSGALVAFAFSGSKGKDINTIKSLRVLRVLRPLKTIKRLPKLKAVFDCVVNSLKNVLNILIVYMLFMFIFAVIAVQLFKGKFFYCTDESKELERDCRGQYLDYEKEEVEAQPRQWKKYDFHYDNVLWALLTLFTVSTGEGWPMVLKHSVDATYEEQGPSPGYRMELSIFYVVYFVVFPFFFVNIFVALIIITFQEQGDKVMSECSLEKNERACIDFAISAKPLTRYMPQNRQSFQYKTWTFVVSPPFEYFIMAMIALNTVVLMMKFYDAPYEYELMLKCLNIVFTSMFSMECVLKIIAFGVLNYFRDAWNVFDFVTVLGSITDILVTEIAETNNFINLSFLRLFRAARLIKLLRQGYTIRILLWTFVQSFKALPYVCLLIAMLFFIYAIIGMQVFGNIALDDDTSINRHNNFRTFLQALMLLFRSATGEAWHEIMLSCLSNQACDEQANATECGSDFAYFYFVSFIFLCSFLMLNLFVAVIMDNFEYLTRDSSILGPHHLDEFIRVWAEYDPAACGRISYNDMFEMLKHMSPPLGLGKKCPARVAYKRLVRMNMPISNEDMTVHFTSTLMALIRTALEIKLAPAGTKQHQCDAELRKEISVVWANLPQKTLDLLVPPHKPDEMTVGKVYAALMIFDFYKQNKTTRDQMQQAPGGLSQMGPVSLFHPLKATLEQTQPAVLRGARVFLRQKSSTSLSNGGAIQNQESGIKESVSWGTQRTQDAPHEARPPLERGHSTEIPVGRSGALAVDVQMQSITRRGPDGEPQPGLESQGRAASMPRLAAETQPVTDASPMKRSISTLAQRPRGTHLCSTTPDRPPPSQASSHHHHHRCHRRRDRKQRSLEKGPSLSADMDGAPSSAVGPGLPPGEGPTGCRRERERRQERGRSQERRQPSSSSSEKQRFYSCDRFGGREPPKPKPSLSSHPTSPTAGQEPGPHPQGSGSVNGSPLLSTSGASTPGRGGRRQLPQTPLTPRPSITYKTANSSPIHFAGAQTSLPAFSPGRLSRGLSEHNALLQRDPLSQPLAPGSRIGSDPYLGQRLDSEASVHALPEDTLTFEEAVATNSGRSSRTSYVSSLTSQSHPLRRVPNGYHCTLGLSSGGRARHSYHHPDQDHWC
Sequence of human Cav2.2 (P54289 25-946 partner limits assumed): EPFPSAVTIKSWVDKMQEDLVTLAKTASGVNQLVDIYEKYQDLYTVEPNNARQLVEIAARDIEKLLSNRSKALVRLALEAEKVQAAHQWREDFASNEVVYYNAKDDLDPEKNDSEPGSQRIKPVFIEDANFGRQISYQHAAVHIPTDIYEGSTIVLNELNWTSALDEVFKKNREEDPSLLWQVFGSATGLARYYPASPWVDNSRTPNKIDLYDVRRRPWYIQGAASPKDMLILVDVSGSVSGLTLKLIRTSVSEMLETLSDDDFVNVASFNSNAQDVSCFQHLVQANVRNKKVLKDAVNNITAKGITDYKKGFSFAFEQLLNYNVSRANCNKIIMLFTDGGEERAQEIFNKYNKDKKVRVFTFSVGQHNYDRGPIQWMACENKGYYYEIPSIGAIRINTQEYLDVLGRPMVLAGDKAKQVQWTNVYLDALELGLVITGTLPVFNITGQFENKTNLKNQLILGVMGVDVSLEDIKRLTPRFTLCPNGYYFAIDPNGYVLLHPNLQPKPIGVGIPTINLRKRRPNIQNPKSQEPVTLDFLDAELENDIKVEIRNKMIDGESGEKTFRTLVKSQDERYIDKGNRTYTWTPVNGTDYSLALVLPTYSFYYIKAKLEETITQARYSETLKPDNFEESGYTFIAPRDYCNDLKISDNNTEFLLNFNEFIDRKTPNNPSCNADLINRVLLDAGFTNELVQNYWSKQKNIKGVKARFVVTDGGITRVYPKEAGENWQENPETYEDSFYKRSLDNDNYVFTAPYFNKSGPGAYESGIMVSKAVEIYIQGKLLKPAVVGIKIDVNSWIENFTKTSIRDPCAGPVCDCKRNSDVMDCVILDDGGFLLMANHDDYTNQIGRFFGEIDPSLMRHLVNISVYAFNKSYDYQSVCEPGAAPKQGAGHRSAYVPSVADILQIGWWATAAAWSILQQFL
Sequence of human Cav2.2 (P54289 947-1103 partner limits assumed): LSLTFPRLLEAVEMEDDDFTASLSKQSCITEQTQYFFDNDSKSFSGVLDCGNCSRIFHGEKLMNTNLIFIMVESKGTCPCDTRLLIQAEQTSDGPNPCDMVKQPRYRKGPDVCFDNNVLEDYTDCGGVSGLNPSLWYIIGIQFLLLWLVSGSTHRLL
Sequence of human Cav2.2 (P54284 whole entry partner): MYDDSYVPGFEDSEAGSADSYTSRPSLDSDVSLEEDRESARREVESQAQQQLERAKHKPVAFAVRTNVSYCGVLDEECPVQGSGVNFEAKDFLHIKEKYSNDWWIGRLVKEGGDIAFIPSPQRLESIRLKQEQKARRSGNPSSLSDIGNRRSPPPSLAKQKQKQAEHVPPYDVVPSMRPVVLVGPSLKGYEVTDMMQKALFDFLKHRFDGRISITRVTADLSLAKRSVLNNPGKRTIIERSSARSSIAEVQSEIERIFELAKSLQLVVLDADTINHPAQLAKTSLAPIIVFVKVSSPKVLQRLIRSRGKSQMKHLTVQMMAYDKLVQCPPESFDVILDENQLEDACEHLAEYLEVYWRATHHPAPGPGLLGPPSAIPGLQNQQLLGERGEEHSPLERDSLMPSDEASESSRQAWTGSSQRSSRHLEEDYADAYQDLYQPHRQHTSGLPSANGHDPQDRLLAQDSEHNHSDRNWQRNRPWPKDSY

| IC50 [nM] | Compound |
| --- | --- |
| 340 | CCC[C@@H](C(=O)N[C@H]1CC[C@@H]2CN(S(=O)(=O)c3cccc(C(F)(F)F)c3)C[C@@H]21)N(C)C(=O)OC(C)(C)C [Example 278, tert-butyl methyl((S)-1-oxo-1-((3aR,4S,6aS)-2-(3-(trifluoromethyl)phenylsulfonyl)octahydrocyclopenta[c]pyrrol-4-ylamino)pentan-2-yl)carbamate] |
| 4180 | CC(C)(C)CN[C@@H]1CC[C@H]2CN(S(=O)(=O)c3cccc(C(F)(F)F)c3)C[C@H]21 [Example 281, (3aS,4R,6aR)—N-neopentyl-2-{[3-(trifluoromethyl)phenyl]sulfonyl}octahydrocyclopenta[c]pyrrol-4-amine] |
| 5240 | CC(C)(C)CN[C@H]1CC[C@@H]2CN(S(=O)(=O)c3cccc(C(F)(F)F)c3)C[C@@H]21 [Example 282, (3aR,4S,6aS)—N-neopentyl-2-{[3-(trifluoromethyl)phenyl]sulfonyl}octahydrocyclopenta[c]pyrrol-4-amine] |
| 8690 | CC(C)N[C@H]1CC[C@@H]2CN(S(=O)(=O)c3ccc(C(F)(F)F)cc3)C[C@@H]21 [Example 283, (3aR,4S,6aS)—N-isopropyl-2-{[4-(trifluoromethyl)phenyl]sulfonyl}octahydrocyclopenta[c]pyrrol-4-amine] |
| 480 | O=S(=O)(c1cccc(C(F)(F)F)c1)N1C[C@@H]2CC[C@@H](NCc3ccc(F)cc3)[C@@H]2C1 [Example 285, (3aS,4R,6aR)—N-(4-fluorobenzyl)-2-{[3-(trifluoromethyl)phenyl]sulfonyl}octahydrocyclopenta[c]pyrrol-4-amine] |
| 380 | O=S(=O)(c1cccc(C(F)(F)F)c1)N1C[C@H]2CC[C@H](NCc3ccc(F)cc3)[C@H]2C1 [Example 286, (3aR,4S,6aS)—N-(4-fluorobenzyl)-2-{[3-(trifluoromethyl)phenyl]sulfonyl}octahydrocyclopenta[c]pyrrol-4-amine] |
| 3090 | Fc1ccc(CN[C@H]2CC[C@@H]3CN(Cc4cccc(C(F)(F)F)c4)C[C@@H]32)cc1 [Example 287, (3aR,4S,6aS)—N-(4-fluorobenzyl)-2-[3-(trifluoromethyl)benzyl]octahydrocyclopenta[c]pyrrol-4-amine] |
| 10400 | CCN[C@H]1CC[C@@H]2CN(S(=O)(=O)c3ccc(C(F)(F)F)cc3)C[C@@H]21 [Example 288, (3aR,4S,6aS)—N-ethyl-2-{[4-(trifluoromethyl)phenyl]sulfonyl}octahydrocyclopenta[c]pyrrol-4-amine] |
| 7800 | CCCN[C@H]1CC[C@@H]2CN(S(=O)(=O)c3ccc(C(F)(F)F)cc3)C[C@@H]21 [Example 290, (3aR,4S,6aS)—N-propyl-2-{[4-(trifluoromethyl)phenyl]sulfonyl}octahydrocyclopenta[c]pyrrol-4-amine] |
| 4400 | CCCN(CCC)[C@H]1CC[C@@H]2CN(S(=O)(=O)c3ccc(C(F)(F)F)cc3)C[C@@H]21 [Example 291, (3aR,4S,6aS)—N,N-dipropyl-2-{[4-(trifluoromethyl)phenyl]sulfonyl}octahydrocyclopenta[c]pyrrol-4-amine] |
| 3910 | O=S(=O)(c1ccc(C(F)(F)F)cc1)N1C[C@H]2CC[C@H](NCC3CC3)[C@H]2C1 [Example 292, (3aR,4S,6aS)—N-(cyclopropylmethyl)-2-{[4-(trifluoromethyl)phenyl]sulfonyl}octahydrocyclopenta[c]pyrrol-4-amine] |
| 4820 | CCN[C@H]1CC[C@@H]2CN(S(=O)(=O)c3ccc(C(F)(F)F)cc3Cl)C[C@@H]21 [Example 293, (3aR,4S,6aS)-2-{[2-chloro-4-(trifluoromethyl)phenyl]sulfonyl}-N-ethyloctahydrocyclopenta[c]pyrrol-4-amine] |
| 2140 | CCN(C(=O)[C@H](CC(C)(C)C)N(C)C(=O)OC(C)(C)C)[C@H]1CC[C@@H]2CN(S(=O)(=O)c3ccc(C(F)(F)F)cc3)C[C@@H]21 [Example 296, tert-butyl(S)-1-(ethyl((3aR,4S,6aS)-2-(4-(trifluoromethyl)phenylsulfonyl)octahydrocyclopenta[c]pyrrol-4-yl)amino)-4,4-dimethyl-1-oxopentan-2-yl(methyl)carbamate] |
| 7880 | CCCN(C(=O)[C@H](CC(C)(C)C)N(C)C(=O)OC(C)(C)C)[C@H]1CC[C@@H]2CN(S(=O)(=O)c3ccc(C(F)(F)F)cc3)C[C@@H]21 [Example 297, tert-butyl(S)-4,4-dimethyl-1-oxo-1-(propyl((3aR,4S,6aS)-2-(4-(trifluoromethyl)phenylsulfonyl)octahydrocyclopenta[c]pyrrol-4-yl)amino)pentan-2-yl(methyl)carbamate] |
| 3680 | O=[N+]([O-])c1ccccc1S(=O)(=O)N[C@H]1CC[C@@H]2CN(S(=O)(=O)c3ccc(C(F)(F)F)cc3)C[C@@H]21 [Example 299, 2-nitro-N-((3aR,4S,6aS)-2-{[4-(trifluoromethyl)phenyl]sulfonyl}octahydrocyclopenta[c]pyrrol-4-yl)benzenesulfonamide] |
| 1540 | CN([C@H]1CC[C@@H]2CN(S(=O)(=O)c3ccc(C(F)(F)F)cc3)C[C@@H]21)S(=O)(=O)c1ccccc1[N+](=O)[O-] [Example 300, N-methyl-2-nitro-N-((3aR,4S,6aS)-2-{[4-(trifluoromethyl)phenyl]sulfonyl}octahydrocyclopenta[c]pyrrol-4-yl)benzenesulfonamide] |
| 1140 | CN(C(=O)OC(C)(C)C)[C@@H](CC(C)(C)C)C(=O)N(C)[C@H]1CC[C@@H]2CN(S(=O)(=O)c3ccc(C(F)(F)F)cc3)C[C@@H]21 [Example 302, tert-butyl(S)-4,4-dimethyl-1-(methyl((3aR,4S,6aS)-2-(4-(trifluoromethyl)phenylsulfonyl)octahydrocyclopenta[c]pyrrol-4-yl)amino)-1-oxopentan-2-yl(methyl)carbamate] |
| 3110 | CC(C)C[C@@H](C(=O)N[C@@H]1CC[C@H]2CN(Cc3cccc(C(F)(F)F)c3)C[C@H]21)N1CCCS1(=O)=O [Example 303, (2S)-2-(1,1-dioxidoisothiazolidin-2-yl)-4-methyl-N-{(3aS,4R,6aR)-2-[3-(trifluoromethyl)benzyl]octahydrocyclopenta[c]pyrrol-4-yl}pentanamide] |
| 3780 | CC(C)C(C(=O)N[C@@H]1CC[C@H]2CN(Cc3cccc(C(F)(F)F)c3)C[C@H]21)C(C)C [Example 304, 2-isopropyl-3-methyl-N-{(3aS,4R,6aR)-2-[3-(trifluoromethyl)benzyl]octahydrocyclopenta[c]pyrrol-4-yl}butanamide] |
| 3510 | CC(C)C(C(=O)N[C@H]1CC[C@@H]2CN(Cc3cccc(C(F)(F)F)c3)C[C@@H]21)C(C)C [Example 305, 2-isopropyl-3-methyl-N-{(3aR,4S,6aS)-2-[3-(trifluoromethyl)benzyl]octahydrocyclopenta[c]pyrrol-4-yl}butanamide] |
| 500 | CC(C)C[C@H](NC(=O)OC(C)(C)C)C(=O)N[C@H]1CC[C@@H]2CN(Cc3cccc(C(F)(F)F)c3)C[C@@H]21 [Example 306, tert-butyl(S)-4-methyl-1-oxo-1-((3aR,4S,6aS)-2-(3-(trifluoromethyl)benzyl)octahydrocyclopenta[c]pyrrol-4-ylamino)pentan-2-ylcarbamate] |
| 1540 | CC(C)C[C@@H](C(=O)N[C@H]1CC[C@@H]2CN(Cc3cccc(C(F)(F)F)c3)C[C@@H]21)N(C)C(=O)OC(C)(C)C [Example 307, tert-butyl methyl((S)-4-methyl-1-oxo-1-((3aR,4S,6aS)-2-(3-(trifluoromethyl)benzyl)octahydrocyclopenta[c]pyrrol-4-ylamino)pentan-2-yl)carbamate] |
| 1740 | CC(C)C[C@@H](C(=O)N[C@H]1CC[C@@H]2CN(Cc3ccc(F)cc3)C[C@@H]21)N(C)C(=O)OC(C)(C)C [Example 309, tert-butyl(S)-1-((3aR,4S,6aS)-2-(4-fluorobenzyl)octahydrocyclopenta[c]pyrrol-4-ylamino)-4-methyl-1-oxopentan-2-yl(methyl)carbamate] |
| 680 | CCN(C(=O)OC(C)(C)C)[C@@H](CC(C)C)C(=O)N[C@H]1CC[C@@H]2CN(Cc3cccc(C(F)(F)F)c3)C[C@@H]21 [Example 310, tert-butyl ethyl((S)-4-methyl-1-oxo-1-((3aR,4S,6aS)-2-(3-(trifluoromethyl)benzyl)octahydrocyclopenta[c]pyrrol-4-ylamino)pentan-2-yl)carbamate] |
| 2100 | CCC[C@@H](C(=O)N[C@H]1CC[C@@H]2CN(Cc3cccc(C(F)(F)F)c3)C[C@@H]21)N(C)C(=O)OC(C)(C)C [Example 313, tert-butyl methyl((S)-1-oxo-1-((3aR,4S,6aS)-2-(3-(trifluoromethyl)benzyl)octahydrocyclopenta[c]pyrrol-4-ylamino)pentan-2-yl)carbamate] |
| 2150 | CCC[C@@H](C(=O)N[C@H]1CC[C@@H]2CN(Cc3ccc(C(F)(F)F)cc3)C[C@@H]21)N(C)C(=O)OC(C)(C)C [Example 314, tert-butyl methyl((S)-1-oxo-1-((3aR,4S,6aS)-2-(4-(trifluoromethyl)benzyl)octahydrocyclopenta[c]pyrrol-4-ylamino)pentan-2-yl)carbamate] |
| 900 | CCC[C@@H](C(=O)N[C@@H]1CC[C@H]2CN(Cc3ccc(C(F)(F)F)cc3)C[C@H]21)N(C)C(=O)OC(C)(C)C [Example 317, tert-butyl methyl((S)-1-oxo-1-((3aS,4R,6aR)-2-(4-(trifluoromethyl)benzyl)octahydrocyclopenta[c]pyrrol-4-ylamino)pentan-2-yl)carbamate] |
| 1210 | CC(C)C[C@@H](C(=O)N[C@@H]1CC[C@H]2CN(S(=O)(=O)c3cccc(C(F)(F)F)c3)C[C@H]21)N1CCOCC1 [Example 319, (2S)-4-methyl-2-morpholin-4-yl-N-((3aS,4R,6aR)-2-{[3-(trifluoromethyl)phenyl]sulfonyl}octahydrocyclopenta[c]pyrrol-4-yl)pentanamide] |
| 700 | CC(C)C[C@@H](C(=O)N[C@@H]1CC[C@H]2CN(S(=O)(=O)c3cccc(C(F)(F)F)c3)C[C@H]21)N1CCCC1 [Example 320, (2S)-4-methyl-2-pyrrolidin-1-yl-N-((3aS,4R,6aR)-2-{[3-(trifluoromethyl)phenyl]sulfonyl}octahydrocyclopenta[c]pyrrol-4-yl)pentanamide] |
